The nature of series [1]: Therapeutic drug monitoring of vancomycin serum concentration (chemiluminescence immunoassay). Format: in vivo, human. Particulars: mostly steady state (>4 doses) trough, 895 observations from 560 patients, dose 951.19 ± 152.23 mg/time, SD.
Procedure: Inclusion criteria were: 1) age ≥18 years; 2) therapeutic drug monitoring was performed during treatment and at least 1 vancomycin concentration was obtained. Exclusion criteria were: 1) pregnant women ([Lin et al., 2021]); 2) cystic fibrosis ([Jing et al., 2020]).
(§1) The dosage regimen of vancomycin is adjusted by the clinicians according to the patient’s conditions and renal function, including 1 g Qd, 1 g Q12h, 1 g Q8h, 0.5 g Qd, 0.5 g Q12h, 0.5 g Q8h and 0.5 g Q6h. The infusion time cannot be accurately obtained, but 1 h infusion was most used in clinical applications, so the default infusion time in this study was 1 h. Vancomycin serum concentrations were obtained from patient’s therapeutic drug monitoring data, most of which were steady state (>4 doses) trough concentrations. The blood samples were anticoagulated by Ethylene Diamine Tetraacetic Acid, centrifuged at 5,000 rpm for 3 min and analyzed by chemiluminescence immunoassay (ADVIA Centaur® XP, Siemens). Sample calibration and quality control were carried out in accordance with the manufacturer’s instructions and the calibration range was 0.67–90 mg/L.
For series [2] the following is noted: fixed, not estimated, ref Jing et al., 2020, cited from earlier work.
For series [3] the following is noted: ref Lin Wu et al., 2015; cited from earlier work.
Series [4] can be described thus: Population pharmacokinetic (NLME, one-compartment) model of vancomycin in postoperative neurosurgical patients.
Procedure: The data of patients who received vancomycin therapy from October 2018 to March 2022 in Beijing Tiantan Hospital, Capital Medical University were retrospectively collected. Inclusion criteria were: 1) age ≥18 years; 2) therapeutic drug monitoring was performed during treatment and at least 1 vancomycin concentration was obtained. Exclusion criteria were: 1) pregnant women ([Lin et al., 2021]); 2) cystic fibrosis ([Jing et al., 2020]).
as §1
In this study, nonlinear mixed effects modeling (NLME) method was used to construct the PPK model. Pharmacokinetic parameters and the variability were assessed using the first-order conditional estimation with extended least square method (FOCE-ELS) by using the Phoenix® NLME software (version 8.3; Certara, St. Louis, Missouri). Bootstrap and visual predictive check (VPC) were used to test the stability and predictive ability of the final model.
The one-compartment model with first-order elimination was used to describe the pharmacokinetic characteristics of vancomycin. The sparse trough concentration data led to the inaccurate estimation of the V. Therefore, the population typical value of V was fixed at 60.2 L according to a PPK model in Chinese neurosurgery adult patients ([Jing et al., 2020]).
Inter-individual variability (η) of PPK model was described by exponential random effect model in Eq. 1. Residual variability (ε) was described by combined (multiplicative and additive) error model in Eq. 2. The η was assumed to follow a normal distribution with a mean of zero and a variance of ω ^2. The ε was assumed to follow a normal distribution with a mean of zero and a variance of σ ^2. θi=θTV×e^ηi, (1) Cobs=Cpred+ε×1+(Cpred×σ1/σ2)^2 (2) where θ TV is the population typical value of pharmacokinetic parameters, θ i is the individual (i ^th) pharmacokinetic parameters. Cobs and Cpred respectively represent the measured concentration and predicted concentration of a patient; σ 1 represents the multiplicative σ, and σ 2 represents the standard deviation of ε.
Continuous covariates included age, height, BW, body mass index, serum creatinine (Scr), creatinine clearance (CLcr) and estimated glomerular filtration rate (eGFR). Categorical covariates included sex, RRT and concomitant drugs (mannitol, meropenem and diuretics). CLcr is calculated by the Cockcroft-Gault equation ([Cockcroft and Gault, 1976]). eGFR is calculated by the Chronic Kidney Disease Epidemiology Collaboration (CKD-EPI) equation ([Kong et al., 2013]). All continuous covariates are centered at their median values. The difference of the objective function value (OFV) was used to compare the models.
After the establishment of the base model, the effects of covariates on pharmacokinetic parameters were tested by forward addition and backward elimination under stepwise manner. In the forward addition, if the decrease of OFV was greater than 6.64 (p < 0.01, df = 1), the covariate was considered to have a significant influence on the model parameters.
The conditions of series [5]: ref Rybak, 2006, cited from earlier work.

Consider `CN[C@H](CC(C)C)C(=O)N[C@H]1C(=O)N[C@@H](CC(N)=O)C(=O)N[C@H]2C(=O)N[C@H]3C(=O)N[C@H](C(=O)N[C@H](C(=O)O)c4cc(O)cc(O)c4-c4cc3ccc4O)[C@H](O)c3ccc(c(Cl)c3)Oc3cc2cc(c3O[C@@H]2O[C@H](CO)[C@@H](O)[C@H](O)[C@H]2O[C@H]2C[C@](C)(N)[C@H](O)[C@H](C)O2)Oc2ccc(cc2Cl)[C@H]1O` [vancomycin, Vancomycin], for which, in series [1], the “Concentration (mg/L), mean ± standard deviation” value is recorded as 14.20 ± 7.36 mg/L. The “V (L), base model” value in series [2] (base model) is reported as 60.2 L. The “V (L), Bootstrap” value in series [2] (bootstrap) was 60.2 L. Besides, in series [2] (final model), the “V (L), apparent distribution volume, final model” value is given as 60.2 L. The “V in another eligible study” value in series [3] was 54 ± 17 L. Also, in series [4] (A in e^A of the CL equation when co-medicated with mannitol, final model), the “Mannitol on CL (L/h), final model, Estimate (%RSE)” value is reported as 0.13 (17.85) L/h. Moreover, in series [4] (A in e^A when co-medicated with mannitol, bootstrap, 5,000 data sets), the “Mannitol on CL (L/h), Bootstrap Median (%RSE)” value is listed as 0.13 (17.72) L/h. For the same compound, in series [4] (base model without covariates), the “CL (L/h), base model, Estimate (%RSE)” value is listed as 8.08 (1.93) L/h. Also, in series [4] (bootstrap of final model, 5,000 data sets), the “CL (L/h), Bootstrap Median (%RSE)” value is 7.97 (2.24) L/h. Also, the “BW on CL (L/h), final model, Estimate (%RSE)” value in series [4] (exponent of (BW/70) in the CL equation, final model) is 0.30 (20.19) L/h. Moreover, the “BW on CL (L/h), Bootstrap Median (%RSE)” value in series [4] (exponent of (BW/70), bootstrap, 5,000 data sets) is on record as 0.30 (19.91) L/h. The “eGFR on CL (L/h), Bootstrap Median (%RSE)” value in series [4] (exponent of (eGFR/115.2), bootstrap, 5,000 data sets) was 0.80 (4.39) L/h. Moreover, in series [4] (final model, one-compartment, FOCE-ELS, 895 concentrations from 560 patients, iv infusion, covariates centred at eGFR 115.2, BW 70, no mannitol), the “CL (L/h), population typical value, final model, Estimate (%RSE)” value is 7.98 (1.90) L/h. Further, the “increase in vancomycin CL when co-medicated with mannitol” value in series [4] (final model, with versus without mannitol) came out at 14%. Besides, the “typical value of vancomycin CL per body weight” value in series [4] (this study, postoperative neurosurgical patients) amounted to 1.83 mL/min/kg. Further, in series [5] (oral), the “absorption by oral administration” value is recorded as “almost not absorbed”. Also, the α half-life in series [5] (patients with normal renal function, printed as 'approximately') was 0.5 to 1 h. The terminal elimination half-life in series [5] (patients with normal renal function) is 3 to 9 h. The protein binding rate in series [5] (printed as 'about') is 10%–50%. For the same compound, in series [5] (within 24 h after administration), the “share of vancomycin excreted in prototype through the kidney” value was “more than 80%”.
